Test results published in patent publication US20230172204A1 (BASF SE, priority 2020, published 2023).

What was measured:
[1] = tested on: Phakopsora pachyrhizi (F129L); assay: Protective control of soybean rust on soybeans (PHAKPA P2); format: in vivo; conditions: for PHAKPA (F129L) Disease level (%) P2 at 16 ppm / PHAKPA (F129L) Disease level (%) P2 at 4 ppm: P2 protective, % diseased leaf area; for % PHAKPA (F129L) Disease level P2 at 4 ppm: protective P2, 4 ppm; for % PHAKPA (F129L) Disease level P2 at 4 ppm / % PHAKPA (F129L) Disease level P2 at 16 ppm: soybean rust F129L; for % PHAKPA (F129L) Disease level P2 at 16 ppm: protective P2, 16 ppm
[2] = tested on: Phakopsora pachyrhizi (F129L); assay: Protective control of soybean rust on soybeans (PHAKPA P6); format: in vivo; conditions: for PHAKPA (F129L) Disease level (%) P6 at 16 ppm / PHAKPA (F129L) Disease level (%) P6 at 4 ppm: P6 protective, % diseased leaf area; for % PHAKPA (F129L) Disease level P6 at 4 ppm: protective P6, 4 ppm; for % PHAKPA (F129L) Disease level P6 at 4 ppm / % PHAKPA (F129L) Disease level P6 at 16 ppm: soybean rust F129L; for % PHAKPA (F129L) Disease level P6 at 16 ppm: protective P6, 16 ppm

Structure (SMILES)	PHAKPA (F129L) Disease level (%) P2 at 16 ppm [1]	PHAKPA (F129L) Disease level (%) P6 at 16 ppm [2]	% PHAKPA (F129L) Disease level P2 at 4 ppm [1]	% PHAKPA (F129L) Disease level P2 at 16 ppm [1]	% PHAKPA (F129L) Disease level P6 at 4 ppm [2]	% PHAKPA (F129L) Disease level P6 at 16 ppm [2]	PHAKPA (F129L) Disease level (%) P2 at 4 ppm [1]	PHAKPA (F129L) Disease level (%) P6 at 4 ppm [2]
CNC(=O)/C(=N/OC)c1ccccc1CO/N=C(\C)c1cccc(N2CC(F)(F)C2)c1 [reference compound]	70%	53%						
CNC(=O)/C(=N/OC)c1cccc(C)c1CO/N=C(\C)c1c(Cl)cccc1C(F)(F)F [compound 290]			92%	14%	83%	21%		
CO/N=C(/C(=O)OC)c1cccc(C)c1CO/N=C(\C)c1ccc(-c2ccc(F)cc2)cc1C(F)(F)F [compound 425]			27%	28%	53%	40%		
C#Cc1ccc(/C(C)=N/OCc2c(C)cccc2/C(=N\OC)C(=O)OC)cc1 [compound 172]			35%	1%	83%	12%		
CNC(=O)/C(=N/OC)c1cccc(C)c1CO/N=C(\C)c1cc(C(F)(F)F)cc(F)c1NC [compound 238]			100%	53%	100%	77%		
CO/N=C(/C(=O)OC)c1cccc(Br)c1CO/N=C(\C)c1ccccc1 [compound 395]			43%	4%	67%	18%		
CO/N=C(/c1cccc(/C(C)=N/OCc2c(C)cccc2/C(=N\OC)C(=O)OC)c1)C(F)(F)F [compound 70]			30%	0%	10%	1%		
CNC(=O)/C(=N/OC)c1cccc(C)c1CO/N=C(\C)c1ccccc1C(C)C [compound 220]			90%	30%	100%	77%		
CNC(=O)/C(=N/OC)c1cccc(C)c1CO/N=C(\C)c1cccc(F)c1 [compound 85]			1%	0%	0%	0%		
CO/N=C(/C(=O)OC)c1cccc(C)c1CO/N=C(\C)c1ccc(Cc2ccccc2)cc1OC(F)(F)F [compound 416]			57%	27%	67%	25%		
CO/N=C(/C)c1ccc(/C(C)=N/OCc2c(C)cccc2/C(=N\OC)C(=O)OC)c(OC(F)(F)F)c1 [compound 418]			70%	33%	73%	57%		
CNC(=O)/C(=N/OC)c1cccc(C)c1CO/N=C(\C)c1c(F)ccc(F)c1OC(F)(F)F [compound 346]			4%	0%	5%	0%		
CNC(=O)/C(=N/OC)c1cccc(C)c1CO/N=C(\C)c1cc(Br)cc(F)c1F [compound 241]			3%	0%	33%	12%		
CO/N=C(/C(=O)OC)c1cccc(C)c1CO/N=C(/c1cccc(Cl)c1)C1CC1 [drawing 981, reference compound]		87%					83%	
CNC(=O)/C(=C/OC)c1cccc(C)c1CO/N=C(\C)c1cccc(C(F)(F)F)c1 [compound 232]			100%	73%	100%	83%		
CNC(=O)/C(=N/OC)c1cccc(C)c1CO/N=C(\C)c1cccc(C2CC2(Cl)Cl)c1 (stereo not drawn) [compound 75]			8%	0%	13%	1%		
CO/N=C(/C(=O)OC)c1cccc(C)c1CO/N=C(\C)c1cc(C(F)(F)F)ccc1Cl [compound 200]			93%	73%	100%	77%		
CO/N=C(/C(=O)OC)c1cccc(C)c1CO/N=C(\SC)c1cccc(Cl)c1 [drawing 982, reference compound]		18%					47%	

Structure (SMILES)	PHAKPA (F129L) Disease level (%) P2 at 16 ppm [1]	PHAKPA (F129L) Disease level (%) P6 at 16 ppm [2]	% PHAKPA (F129L) Disease level P2 at 4 ppm [1]	% PHAKPA (F129L) Disease level P2 at 16 ppm [1]	% PHAKPA (F129L) Disease level P6 at 4 ppm [2]	% PHAKPA (F129L) Disease level P6 at 16 ppm [2]	PHAKPA (F129L) Disease level (%) P2 at 4 ppm [1]	PHAKPA (F129L) Disease level (%) P6 at 4 ppm [2]
CO/N=C(/C(=O)OC)c1cccc(C)c1CO/N=C(\C)c1cc(C(F)(F)F)cc(C(F)(F)F)c1 [compound 34]			100%	90%	90%	83%		
CNC(=O)/C(=N/OC)c1ccccc1CO/N=C(/c1ccccc1)C(F)F [reference compound]							43%	90%
CNC(=O)/C(=N/OC)c1cccc(C)c1CO/N=C(\CC(F)(F)F)c1ccccc1C [compound 393]			93%	55%	93%	42%		
CNC(=O)/C(=N/OC)c1cccc(C)c1CO/N=C(\C)c1c(F)cc(Br)cc1C(F)(F)F [compound 358]			77%	17%	83%	18%		
CO/N=C(/C(=O)OC)c1cccc(C)c1CO/N=C(\C)c1cc(F)ccc1C(F)(F)F [compound 249]			87%	37%	90%	43%		
CO/N=C(/C)c1ccc(/C(C)=N/OCc2c(C)cccc2/C(=N\OC)C(=O)OC)c(C(F)(F)F)c1 [compound 417]			35%	18%	63%	22%		
CNC(=O)/C(=N/OC)c1cccc(C)c1CO/N=C(\C)c1c(F)cccc1F [compound 214]			14%	0%	28%	4%		
CNC(=O)/C(=N/OC)c1cccc(C)c1CO/N=C(\C)c1ccc(Cl)c(C(F)(F)F)c1 [Ex. 60]	0%	0%	23%	1%	53%	2%		
CO/N=C(/C(=O)OC)c1cccc(C)c1CO/N=C(\C)c1ccc(Br)cc1C(F)(F)F [compound 257]			93%	35%	100%	57%		
CNC(=O)/C(=N/OC)c1cccc(C)c1CO/N=C(/c1ccc(Cl)cc1)C(F)F [compound 22]			100%	90%	100%	93%		
CNC(=O)/C(=N/OC)c1cccc(C)c1CO/N=C(\C)c1ccc(C)cc1C(F)(F)F [compound 327]			23%	3%	48%	4%		
CO/N=C(/C(=O)OC)c1cccc(C)c1CO/N=C(\C)c1cc(F)cc(C(F)(F)F)c1 [compound 51]			28%	2%	15%	0%		
CNC(=O)/C(=N/OC)c1cccc(C)c1CO/N=C(\C)c1ccc(C)cc1 [Ex. 6, (2E)-2-Methoxyimino-N-methyl-2-[3-methyl-2-[[(E)-1-(p-tolyl)ethylideneamino]oxymethyl]phenyl]acetamide]			1%	0%	19%	1%	0%	23%
CNC(=O)/C(=N/OC)c1cccc(C)c1CO/N=C(\C)c1cc(Cl)c(F)c(Cl)c1 [compound 247]			16%	2%	33%	8%		
CO/N=C(/C(=O)OC)c1cccc(C)c1CO/N=C(\C)c1ccccc1 [Ex. 30]	2%	1%	53%	1%	77%	2%		
CO/N=C(/C(=O)OC)c1cccc(C)c1CO/N=C(\C)c1ccc(F)c(F)c1 [compound 129]			28%	1%	24%	2%		
CNC(=O)/C(=N/OC)c1cccc(C)c1CO/N=C(\C)c1ccc(C)c(C)c1 [compound 139]			47%	2%	72%	24%		
